{"source": "paper PMC5603573", "about": "“Cyclipostins and Cyclophostin analogs as promising compounds in the fight against tuberculosis” (Scientific Reports, 2017)", "key": {"[1]": {"test_system": "M. tb H37Rv-GFP", "assay": "microbe, parasite or virus in culture", "assay_type": "cell-based, Mycobacterium tuberculosis"}, "[2]": {"test_system": "M. tb H37Rv-GFP replicating inside Raw264.7 macrophages", "assay": "microbe, parasite or virus in culture", "assay_type": "cell-based, Mycobacterium tuberculosis", "conditions": "for MIC50: read-out: Intracellular macrophage growth MIC50"}, "[3]": {"assay": "in vitro", "conditions": "mouse"}, "[4]": {"test_system": "M. tb", "set-up": "method as in PMID 23029536, PMID 27503643, doi:10.1039/C6MD00231E", "conditions": "M. tb growth, inhibitor alone; cited from earlier work"}, "[5]": {"test_system": "M. tb H37Rv-GFP", "set-up": "method as in PMID 19876393", "conditions": "M. tb H37Rv-GFP in broth medium; cited from earlier work"}, "[6]": {"test_system": "M. tb H37Rv-GFP replicating inside Raw264.7 macrophages", "set-up": "method as in PMID 19876393", "conditions": "Raw264.7 macrophages infected with M. tb H37Rv-GFP; cited from earlier work"}, "[7]": {"test_system": "Raw264.7 murine macrophages", "set-up": "method as in PMID 19876393", "conditions": "50% host cell toxicity, Raw264.7 macrophages, read-out: Intracellular macrophage growth CC50, cited from earlier work"}, "[8]": {"test_system": "M. tb mc^26230 WT", "assay": "microbe, parasite or virus in culture", "assay_type": "cell-based", "conditions": "REMA"}, "[9]": {"test_system": "M. tb mc^26230-empty vector", "assay": "REMA, empty vector strain", "assay_type": "cell-based, Mycobacterium tuberculosis", "conditions": "Mycobacterium tuberculosis, REMA"}, "[10]": {"test_system": "serine/cysteine enzymes in M. tb mc^26230 lysate", "assay": "Competitive ABPP labelling/enrichment with Desthiobiotin-FP (and TAMRA-FP), LC-MS/MS target identification", "assay_type": "binding, Mycobacterium tuberculosis", "conditions": "lysate pre-incubated with 580 µM inhibitor, 37 °C, 90 min"}, "[11]": {"test_system": "M. tb", "set-up": "method as in earlier work", "conditions": "combined application with vancomycin; ref 62 (Orlistat), 28 (Lalistat); cited from earlier work"}, "[12]": {"conditions": "Mycobacterium tuberculosis, H37RV, 120 h"}, "[13]": {"conditions": "Mycobacterium tuberculosis, H37RV, 120 h, read-out: Extracellular growth MIC50"}, "[14]": {"conditions": "read-out: Extracellular growth MIC50"}}, "note": "Like-named read-outs stand apart in the source and are kept apart here.", "data": [{"molecule": "CCCCCC1CCP(=O)(OC)OC(C)=C1C(=O)OC", "note": "(stereo not drawn) [CyC 6(β)]", "values": [{"measurement": "Extracellular growth MIC50", "setting": "[1]", "result": "No effect"}, {"measurement": "MIC50", "setting": "[2]; [12]", "result": 12.6, "unit": "µM"}, {"measurement": "CC50", "setting": "[3]", "result": "> 100", "unit": "µM"}]}, {"molecule": "CCCCCCCCCCCCCCCCO[P@]1(=O)OC[C@@H]2COC(=O)C2=C(C)O1", "note": "[CyC 18(α)]", "values": [{"measurement": "MIC50", "setting": "[1]; [13]", "result": 24.4, "unit": "µM"}, {"measurement": "Intracellular macrophage growth MIC50", "setting": "[2]", "result": "No effect"}, {"measurement": "CC50", "setting": "[3]", "result": "> 100", "unit": "µM"}]}, {"molecule": "MmPPOX", "values": [{"measurement": "MIC", "setting": "[4]", "result": "25 to 50", "unit": "µM"}]}, {"molecule": "CCCCCCCCCC[C@@H]1CC[P@](=O)(OC)OC(C)=C1C(=O)OC", "note": "(relative stereo) [CyC 7(α)]", "values": [{"measurement": "MIC50", "setting": "[1]; [13]", "result": 92.6, "unit": "µM"}, {"measurement": "MIC50", "setting": "[2]; [12]", "result": 4.5, "unit": "µM"}, {"measurement": "CC50", "setting": "[3]", "result": "> 100", "unit": "µM"}]}, {"molecule": "CO[C@H]1/C=C/O[C@@]2(C)Oc3c(C)c(O)c4c(O)c(c(/C=N/N5CCN(C)CC5)c(O)c4c3C2=O)NC(=O)/C(C)=C\\C=C\\[C@H](C)[C@H](O)[C@@H](C)[C@@H](O)[C@@H](C)[C@H](OC(C)=O)[C@@H]1C", "note": "[Rifampicin (RIF), Rifampicin]", "values": [{"measurement": "Extracellular growth MIC50", "setting": "[5]", "result": 0.01, "unit": "µM"}, {"measurement": "Intracellular macrophage growth MIC50", "setting": "[6]", "result": 2.9, "unit": "µM"}, {"measurement": "CC50", "setting": "[7]", "result": 24, "unit": "µM"}]}, {"molecule": "CCCCCCCCCCCCCCCCOP1(=O)OCCC(C(=O)OC)=C(C)O1", "note": "(centres unmarked) [CyC 17]", "values": [{"measurement": "MIC50", "setting": "[1]; [13]", "result": 0.5, "unit": "µM"}, {"measurement": "MIC50", "setting": "[1]; Mycobacterium tuberculosis, H37RV, read-out: Extracellular MIC50", "result": "~0.5", "unit": "µM"}, {"measurement": "MIC50", "setting": "[1]; [14]", "result": 0.50, "unit": "µM"}, {"measurement": "Intracellular macrophage growth MIC50", "setting": "[2]", "result": "No effect"}, {"measurement": "MIC50", "setting": "[8]; Mycobacterium tuberculosis, read-out: MIC50", "result": "0.55 ± 0.023", "unit": "µM"}, {"measurement": "MIC50", "setting": "[8]", "result": "0.55 ± 0.023", "unit": "µM"}, {"measurement": "MIC50", "setting": "[9]", "result": "0.52 ± 0.01", "unit": "µM"}, {"measurement": "Effect of pre-treatment on Desthiobiotin-FP labelled bands (SDS-PAGE)", "setting": "[10]", "result": "decrease in intensity of bands 1, 2 and 8; or disapearance of bands 3-7 and 9"}, {"measurement": "CC50", "setting": "[3]", "result": "> 100", "unit": "µM"}]}, {"molecule": "CCCCCCCCCCCCCCCCO[P@]1(=O)OC[C@H]2COC(=O)C2=C(C)O1", "note": "[CyC 18(β), Cyclipostins P]", "values": [{"measurement": "MIC50", "setting": "[1]; [13]", "result": 1.7, "unit": "µM"}, {"measurement": "Intracellular macrophage growth MIC50", "setting": "[2]", "result": "No effect"}, {"measurement": "CC50", "setting": "[3]", "result": "> 100", "unit": "µM"}]}, {"molecule": "CCc1cc(C(N)=S)ccn1", "note": "[Ethionamide (ETO), Ethionamide]", "values": [{"measurement": "Extracellular growth MIC50", "setting": "[5]", "result": 6.0, "unit": "µM"}, {"measurement": "Intracellular macrophage growth MIC50", "setting": "[6]", "result": 6.0, "unit": "µM"}, {"measurement": "CC50", "setting": "[7]; listed as ethionamide", "result": "≥ 120", "unit": "µM"}, {"measurement": "CC50", "setting": "[7]", "result": 120, "unit": "µM"}]}, {"molecule": "CCCCCCCCCCCCCCCCOP1(=O)CCC(CCCCCCCCCC)C(C(=O)OC)=C(C)O1", "note": "(centres unmarked) [CyC 13]", "values": [{"measurement": "antibacterial activity against M. tb (in words)", "setting": "[1]", "result": "did not yield any significant antibacterial activity"}]}, {"molecule": "Lalistat", "values": [{"measurement": "MIC", "setting": "[4]", "result": "25 to 50", "unit": "µM"}, {"measurement": "MIC", "setting": "[11]", "result": "6 to 12", "unit": "µM"}, {"measurement": "MIC drop", "setting": "[11]", "result": 4, "unit": "fold"}]}, {"molecule": "CCCCCCCCCCCCCCCCCCOP1(=O)CCCC(C(=O)OC)=C(C)O1", "note": "(centres unmarked) [CyC 12]", "values": [{"measurement": "antibacterial activity against M. tb (in words)", "setting": "[1]", "result": "non-active"}]}, {"molecule": "CCCCCCCCCCCCC1CCP(=O)(OC)OC(C)=C1C(=O)OC", "note": "(stereo not drawn) [CyC 8(β)]", "values": [{"measurement": "MIC50", "setting": "[1]; [13]", "result": "> 100", "unit": "µM"}, {"measurement": "MIC50", "setting": "[2]; [12]", "result": 11.7, "unit": "µM"}, {"measurement": "CC50", "setting": "[3]", "result": "> 20", "unit": "µM"}]}, {"molecule": "CCCCCCCCCCCCCCCCOP1(=O)OC(C)=C(C(=O)OC)CCC1(F)F", "note": "(centres unmarked) [CyC 14]", "values": [{"measurement": "antibacterial activity against M. tb (in words)", "setting": "[1]", "result": "non-active"}]}, {"molecule": "CCCCCCCCCCCCCCCCOP1(=O)CCCC(C(=O)OC)=C(C)O1", "note": "(centres unmarked) [CyC 11]", "values": [{"measurement": "antibacterial activity against M. tb (in words)", "setting": "[1]", "result": "non-active"}]}, {"molecule": "CCCCCCCCCCC[C@@H](C[C@@H]1OC(=O)[C@H]1CCCCCC)OC(=O)[C@H](CC(C)C)NC=O", "note": "[Orlistat]", "values": [{"measurement": "MIC", "setting": "[4]", "result": "25 to 50", "unit": "µM"}, {"measurement": "MIC", "setting": "[11]", "result": "~ 6 µM"}, {"measurement": "MIC drop", "setting": "[11]", "result": 16, "unit": "fold"}]}, {"molecule": "CCCCCCCCCCC1CCP(=O)(OC)OC(C)=C1C(=O)OC", "note": "(stereo not drawn) [CyC 7(β)]", "values": [{"measurement": "MIC50", "setting": "[1]; [13]", "result": "16 to 40", "unit": "µM"}, {"measurement": "MIC50", "setting": "[1]; [14]", "result": 16.6, "unit": "µM"}, {"measurement": "MIC50", "setting": "[2]; [12]", "result": "3 to 4", "unit": "µM"}, {"measurement": "MIC50", "setting": "[2]", "result": 3.1, "unit": "µM"}, {"measurement": "CC50", "setting": "[3]", "result": "> 100", "unit": "µM"}]}, {"molecule": "CCCCCCCCCCCC[C@@H]1CC[P@](=O)(OC)OC(C)=C1C(=O)OC", "note": "(relative stereo) [CyC 8(α)]", "values": [{"measurement": "MIC50", "setting": "[2]; [12]", "result": "3 to 4", "unit": "µM"}, {"measurement": "MIC50", "setting": "[2]", "result": 4.0, "unit": "µM"}, {"measurement": "CC50", "setting": "[3]", "result": "> 100", "unit": "µM"}]}, {"molecule": "NNC(=O)c1ccncc1", "note": "[Isoniazid (INH), Isoniazid]", "values": [{"measurement": "Extracellular growth MIC50", "setting": "[5]", "result": 1.2, "unit": "µM"}, {"measurement": "Intracellular macrophage growth MIC50", "setting": "[6]", "result": 1.2, "unit": "µM"}, {"measurement": "CC50", "setting": "[7]", "result": "> 150", "unit": "µM"}]}]}
